From PubChem BioAssay AID192 (DTP/NCI, 2004)
Toxic doses and inconclusive results are not listed.

Tested on: BDF1 mice, B16 melanoma ip, median survival T/C
Test: NCI In Vivo Anticancer Drug Screen. Data for tumor model B16 Melanoma (intraperitoneal) in B6D2F1 (BDF1) mice
Details: endpoint: median survival time, higher = longer survival
Method in brief: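 Transplantable tumor model; survival or tumor size measured; reported as T/C, treated over vehicle control.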

[1] = dose: 100.0 mg/kg/injection, schedule: Q01DX009 (ip), vehicle: Klucel (hydroxypropylcellulose) (HPC)
[2] = dose: 200.0 mg/kg/injection, schedule: Q01DX009 (ip), vehicle: Klucel (hydroxypropylcellulose) (HPC)
[3] = dose: 400.0 mg/kg/injection, schedule: Q01DX009 (ip), vehicle: Klucel (hydroxypropylcellulose) (HPC)
[4] = dose: 200.0 mg/kg/injection, schedule: Q01DX009 (ip), vehicle: saline
[5] = dose: 12.5 mg/kg/injection, schedule: Q01DX009 (ip), vehicle: saline with Tween-80
[6] = dose: 25.0 mg/kg/injection, schedule: Q01DX009 (ip), vehicle: saline with Tween-80
[7] = dose: 50.0 mg/kg/injection, schedule: Q01DX009 (ip), vehicle: saline with Tween-80
[8] = dose: 25.0 mg/kg/injection, schedule: Q01DX009 (ip), vehicle: Klucel (hydroxypropylcellulose) (HPC)
[9] = dose: 100.0 mg/kg/injection, schedule: Q01DX009 (ip), vehicle: saline with Tween-80
[10] = dose: 400.0 mg/kg/injection, schedule: Q01DX009 (ip), vehicle: saline

With `CCCCC1CCCCCCc2[nH]c(/C=C3\N=C(c4ccc[nH]4)C=C3OC)cc21` (stereo not drawn) the T/C (dose: 62.0 micrograms/kg/injection, schedule: Q01DX009 (ip), vehicle: saline with Tween-80) was 106 % of control, the T/C (dose: 125.0 micrograms/kg/injection, schedule: Q01DX009 (ip), vehicle: saline with Tween-80) was 96 % of control and the T/C (dose: 250.0 micrograms/kg/injection, schedule: Q01DX009 (ip), vehicle: saline with Tween-80) was 92 % of control. For the same compound, the T/C (dose: 500.0 micrograms/kg/injection, schedule: Q01DX009 (ip), vehicle: saline with Tween-80) was 103 % of control.

`COc1ccc(C(=O)Nc2ccccc2)cc1[N+](=O)[O-]` was tested, and the T/C [1] was 89 % of control, the T/C [2] was 100 % of control and the T/C [3] was 94 % of control.

With `CCOC(=O)C(=Cc1ccccc1Cl)C(=O)OCC` the T/C (dose: 50.0 mg/kg/injection, schedule: Q04DX003 (ip), vehicle: Klucel (hydroxypropylcellulose) (HPC)) was 99 % of control, the T/C (dose: 100.0 mg/kg/injection, schedule: Q04DX003 (ip), vehicle: Klucel (hydroxypropylcellulose) (HPC)) was 107 % of control and the T/C (dose: 200.0 mg/kg/injection, schedule: Q04DX003 (ip), vehicle: Klucel (hydroxypropylcellulose) (HPC)) was 95 % of control.

`CCCCN(CCCC)CCCC#N` was tested, and the T/C [4] was 92 % of control.

With `Nc1ccc(S(=O)(=O)N/N=C/c2ccccc2Cl)cc1` the T/C [5] was 107 % of control, the T/C [6] was 102 % of control and the T/C [7] was 107 % of control.

In the case of `CCN(CC)C(=S)SSC(=S)N(CC)CC`, the T/C (dose: 0.78 mg/kg/injection, schedule: Q01DX009 (ip), vehicle: Klucel (hydroxypropylcellulose) (HPC)) was 110 % of control, the T/C (dose: 1.56 mg/kg/injection, schedule: Q01DX009 (ip), vehicle: Klucel (hydroxypropylcellulose) (HPC)) was 86 % of control and the T/C (dose: 3.12 mg/kg/injection, schedule: Q01DX009 (ip), vehicle: Klucel (hydroxypropylcellulose) (HPC)) was 97 % of control. The T/C (dose: 6.25 mg/kg/injection, schedule: Q01DX009 (ip), vehicle: Klucel (hydroxypropylcellulose) (HPC)) was 105 % of control and the T/C [8] was 92 % of control.

For `Cn1nc(-c2ccccc2)nc1[N+](=O)[O-]`, the T/C [5] was 100 % of control, the T/C [6] was 96 % of control and the T/C [7] was 106 % of control. For the same compound, the T/C [9] was 86 % of control.

`COc1cccc2c1C(=O)c1c(O)c3c(c(O)c1C2=O)C[C@@](O)(C(=O)CO)C[C@@H]3OC1CC(N2CCOCC2C#N)C(O)C(C)O1` (stereo partly drawn) was tested, and the T/C (dose: 37.5 micrograms/kg/injection, schedule: Q01DX001 (ip), vehicle: water) was 161 % of control.

For `CCN(C(=O)Nc1ccccc1)c1ccccc1`, the T/C (dose: 100.0 mg/kg/injection, schedule: Q04DX003 (ip), vehicle: saline with Tween-80) was 94 % of control, the T/C (dose: 200.0 mg/kg/injection, schedule: Q04DX003 (ip), vehicle: saline with Tween-80) was 100 % of control and the T/C (dose: 400.0 mg/kg/injection, schedule: Q04DX003 (ip), vehicle: saline with Tween-80) was 97 % of control.

`CC1CN=C(c2ccc(NC(=O)c3ccc(C(=O)Nc4ccc(C5=NCC(C)N5)cc4)cc3)cc2)N1` (stereo not drawn) was tested, and the T/C (dose: 12.5 mg/kg/injection, schedule: Q01DX009 (ip), vehicle: Klucel (hydroxypropylcellulose) (HPC)) was 118 % of control and the T/C [8] was 107 % of control.

For `O=C(O)C1(C(=O)O)CCCCC1.[NH-]CC1(C[NH-])CCCCC1.[Pt+2]`, the T/C (dose: 6.25 mg/kg/injection, schedule: Q01DX009 (ip), vehicle: saline) was 121 % of control, the T/C (dose: 12.5 mg/kg/injection, schedule: Q01DX009 (ip), vehicle: saline) was 122 % of control and the T/C (dose: 25.0 mg/kg/injection, schedule: Q01DX009 (ip), vehicle: saline) was 122 % of control.

With `CC(O)C(NC(=O)OC(C)(C)C)C(=O)O` (stereo not drawn) the T/C [4] was 105 % of control and the T/C [10] was 93 % of control.

In the case of `CC1=NN(c2cccc(Cl)c2)C(=O)C1`, the T/C [7] was 108 % of control, the T/C [9] was 109 % of control and the T/C (dose: 200.0 mg/kg/injection, schedule: Q01DX009 (ip), vehicle: saline with Tween-80) was 101 % of control.

`OC(CI)C(O)C(O)C(O)CI` (stereo not drawn) was tested, and the T/C (dose: 100.0 mg/kg/injection, schedule: Q01DX009 (ip), vehicle: saline) was 97 % of control, the T/C [4] was 94 % of control and the T/C [10] was 103 % of control.

With `C=CCNC(=S)NCC=C` the T/C [1] was 97 % of control, the T/C [2] was 92 % of control and the T/C [3] was 102 % of control.
